# Residues, ends and D or L forms follow the SMILES beside them. *: point of attachment. Cbz = O=C(OCc1ccccc1)*
# Assays:
# [1] = Inhibition of recombinant ovine lung calpain-2 protease using BODIPY-FL casein as substrate after 10 mins by fluorescence-based assay; design: species or system Ovis aries
# [2] = Selectivity ratio of IC50 for chymotrypsin like activity of rabbit 20S proteasome beta 5 to IC50 for recombinant ovine lung calpain 2 protease
# [3] = molecular target: T1, Proteasome Macropain subunit MB1 (Homo sapiens) (UniProt P28074); test: Ratio of test compound IC50 to MG132 IC50 for chymotrypsin like activity of 26S proteasome beta 5 subunit (unknown origin) by fluorescence assay
# T1 sequence (whole entry): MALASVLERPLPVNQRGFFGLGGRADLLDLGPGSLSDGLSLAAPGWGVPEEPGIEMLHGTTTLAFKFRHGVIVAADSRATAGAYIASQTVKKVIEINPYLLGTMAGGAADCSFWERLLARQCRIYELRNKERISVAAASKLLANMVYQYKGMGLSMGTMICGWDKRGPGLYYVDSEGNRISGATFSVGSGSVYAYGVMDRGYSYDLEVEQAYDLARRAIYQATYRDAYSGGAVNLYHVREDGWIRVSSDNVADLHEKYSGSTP
# [4] = test system: Plasmodium falciparum; test: Antiplasmodial activity against Plasmodium falciparum D10 cultured in human O+ erythrocytes after 50 to 60 hrs by ethidium bromide staining-based flow cytometric analysis; assay type: functional, organism-based
# [5] = Inhibition of chymotrypsin like activity of rabbit 20S proteasome beta 5 subunit using Suc-LLVY-AMC as substrate preincubated for 15 mins followed by substrate addition and measured after 2 hrs by fluorescence assay; design: species or system Oryctolagus cuniculus
# [6] = molecular target: T2, Calpain-2 catalytic subunit (Sus scrofa, UniProt P43367); test: Inhibition of recombinant porcine calpain 2 protease using BODIPY-FL casein as substrate measured at 30 secs time interval for 30 mins by fluorescence-based assay
# T2 sequence (P43367 whole entry): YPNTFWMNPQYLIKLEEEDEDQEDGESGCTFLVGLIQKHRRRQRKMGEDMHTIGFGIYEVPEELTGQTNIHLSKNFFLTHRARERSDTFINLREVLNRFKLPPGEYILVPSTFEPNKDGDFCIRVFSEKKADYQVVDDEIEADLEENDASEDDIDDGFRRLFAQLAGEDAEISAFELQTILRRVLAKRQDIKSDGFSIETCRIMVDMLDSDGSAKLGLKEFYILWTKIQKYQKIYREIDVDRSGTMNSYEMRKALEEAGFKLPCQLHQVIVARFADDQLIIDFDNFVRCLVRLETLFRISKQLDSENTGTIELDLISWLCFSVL
# [7] = Inhibition of recombinant ovine lung calpain-1 protease using BODIPY-FL casein as substrate measured at 30 secs time interval for 30 mins by fluorescence-based assay; design: species or system Ovis aries
# [8] = Selectivity ratio of IC50 for chymotrypsin like activity of 26S proteasome beta 5 subunit (unknown origin) to IC50 for recombinant ovine lung calpain 2 protease
# [9] = molecular target: T3, Proteasome Macropain subunit MB1 (Homo sapiens, UniProt P28074); test: Inhibition of chymotrypsin like activity of 26S proteasome beta 5 subunit (unknown origin) by fluorescence assay
# T3 sequence (P28074 whole entry): T1 sequence (whole entry)
# [10] = Inhibition of recombinant ovine lung calpain-2 protease using BODIPY-FL casein as substrate measured at 30 secs time interval for 30 mins by fluorescence-based assay; design: species or system Ovis aries
# [11] = species on record: Ovis aries; test: Potency index, ratio of MG132 IC50 to test compound IC50 for recombinant ovine lung calpain-2 protease using BODIPY-FL casein as substrate measured at 30 secs time interval for 30 mins by fluorescence-based assay
SMILES,IC50 [1] [nM],Ratio IC50 [2],Ratio IC50 [3],IC50 [4] [nM],IC50 [5] [nM],IC50 [6] [nM],IC50 [7] [nM],Ratio IC50 [8],IC50 [9] [nM],IC50 [10] [nM],Ratio IC50 [11]
C#CCOc1ccc(C[C@@H](C=O)NC(=O)[C@H](CC(C)C)NC(=O)[C@H](CCCCN=[N+]=[N-])NC(=O)OCc2ccccc2)cc1,1030,0.15,16 to 428,561,150,–,–,–,–,–,–
C#CCOc1ccc(C[C@@H](C=O)NC(=O)[C@@H](NC(=O)[C@H](CCCCN=[N+]=[N-])NC(=O)OCc2ccccc2)[C@@H](C)CC)cc1,390,0.05,16 to 428,146,20,–,–,–,–,–,–
C#CCOc1ccc(C[C@@H](C=O)NC(=O)[C@H](CC(C)C)NC(=O)[C@H](Cc2ccccc2)NC(=O)OCc2ccccc2)cc1,–,–,16 to 428,250,–,34,81,14,189,13,> 3
CC(C)C[C@H](NC(=O)[C@H](Cc1ccccc1)NC(=O)OCc1ccccc1)C(=O)N[C@H](C=O)Cc1ccccc1 (Cbz-Phe-Leu-Phe-aldehyde),–,–,16 to 428,191,–,27,51,86,514,6,> 3

# More lines, in order of falling IC50 [4], values ahead:
IC50 [1] [nM],Ratio IC50 [2],Ratio IC50 [3],IC50 [4] [nM],IC50 [5] [nM],IC50 [6] [nM],IC50 [7] [nM],Ratio IC50 [8],IC50 [9] [nM],IC50 [10] [nM],Ratio IC50 [11],SMILES
–,–,16 to 428,6130,–,4200,9800,0.05,220,4400,–,CC(C)C[C@H](NC(=O)OCc1ccccc1)C(=O)N[C@@H](CC(C)C)C(=O)N[C@@H](CC(C)C)C(=O)[C@@]1(C)CO1
–,–,16 to 428,213,–,160,40,2.7,269,99,> 3,CC(C)C[C@@H](C=O)NC(=O)[C@H](CO)NC(=O)[C@H](CC(C)C)NC(=O)OCc1ccccc1 (Cbz-Leu-Ser-Leu-aldehyde)
–,–,16 to 428,62,–,6,8,13,139,11,> 3,CC(C)C[C@@H](C=O)NC(=O)[C@H](CC(C)C)NC(=O)[C@H](Cc1ccccc1)NC(=O)OCc1ccccc1 (Cbz-Phe-Leu-Leu-aldehyde)
–,–,–,35,–,–,120,–,–,311,–,CC(C)C[C@@H](C=O)NC(=O)[C@H](CC(C)C)NC(=O)[C@H](CC(C)C)NC(=O)OCc1ccccc1 [MG-132] (Cbz-Leu-Leu-Leu-aldehyde)
